Consider seven compounds from patent US5514662A, “Use of amphotericin B derivatives as protease inhibitors” (priority 1991, dated 1996).

Like-named read-outs stand apart in the source and are kept apart here. Some results are limits rather than exact numbers.

The target of one data set is T1, trypsin (Bos taurus, UniProt P00760).
T1 sequence (P00760 24-246): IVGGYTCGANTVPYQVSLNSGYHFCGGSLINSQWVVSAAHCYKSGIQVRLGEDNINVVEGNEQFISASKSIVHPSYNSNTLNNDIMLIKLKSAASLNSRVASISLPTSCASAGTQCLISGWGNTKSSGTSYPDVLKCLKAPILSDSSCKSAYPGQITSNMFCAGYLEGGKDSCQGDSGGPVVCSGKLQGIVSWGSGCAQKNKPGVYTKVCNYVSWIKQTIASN
The data set is described as follows: Inhibition of trypsin. Format: biochemical.

For data set [1], the system named is HIV-1. To be noted: T cells infected in vitro; cited from earlier work.
The subject of data set [2] is HIV-1. To be noted: cited from earlier work.
Another data set concerns HIV. To be noted: cited from earlier work.
Data set [3] concerns DNA and RNA viruses containing a lipid envelope. The note with it: in vitro; cited from earlier work.
The subject of the next data set is HRV14. The data set is described as follows: Cytopathogenic effect of HRV14 in HeLa-Ohio cells. Format: cell-based. The note with it: 0.03 to 100 μM, added 1 hour after infection. Here is the method: HeLa-Ohio cells cultured until they have become confluent, are infected with a suspension of HRV14 virus. The cytopathogenic effect of the virus is evaluated by staining the cells with a 0.5% solution of crystal violet and 20% of methanol; after rinsing the plates with water, the optical density is read at 550 nm.
For the rest of the experiment, the cells are infected with a viral suspension with a titre such that 50% of the cells are killed after 3 days on control cells not receiving any treatment. 1 hour after the infection, the test product (AmB or DABF-AmB) is added at concentrations ranging from 0.03 to 100 μM. The percentage inhibition of the cytopathogenic effect is determined as follows:
OD (treated infected cells)-OD (infected cells)!
OD (healthy cells)-OD (infected cells)!
The effect of the addition of DABF-AmB was tested at various times: preincubation of the cells with DABF-AmB before the viral infection; addition of DABF-AmB at the time of the infection; addition of DABF-AmB after the infection, during the period of viral proliferation.

Data set [4] is described as follows: Cytotoxicity in HeLa-Ohio cells. Format: cell-based, human. The note with it: human, hela-ohio cells; read-out: concentration above which cytotoxic.
For data set [5] the following is noted: patients; cited from earlier work.
Where [6] appears, read: read-out: % inhibition of trypsin relative to a control without inhibitor.

`COC(=O)[C@H]1[C@@H]2C[C@@H](O[C@@H]3O[C@H](C)[C@@H](O)[C@H](N)[C@@H]3O)/C=C/C=C/C=C/C=C/C=C/C=C/C=C/[C@H](C)[C@@H](O)[C@@H](C)[C@H](C)OC(=O)C[C@H](O)C[C@H](O)CC[C@@H](O)[C@H](O)C[C@H](O)C[C@](O)(C[C@@H]1O)O2` [AME, methyl ester of amphotericin B]: the inhibition at 1 µM at trypsin (setting [6]) was approximately 10%. The “inhibition of cell death and of viral expression” value in the data set on HIV-1 [1] is “inhibitors of cell death and of viral expression”. Further, the “capacity of preincubated HIV-infected lymphocytes to form syncytia with uninfected cells” value with HIV-1 [2] (HIV-infected lymphocytes preincubated) is given as “increased”. Further, the “inhibition of infection by preincubation of healthy lymphocytes prior to infection” value in the data set on HIV-1 [2] (lymphocytes preincubated) is listed as “inhibits the infection”.
For the compound `Cc1cn([C@H]2C[C@H](N=[N+]=[N-])[C@@H](CO)O2)c(=O)[nH]c1=O` [AZT, 3'-azido-2',3'-dideoxythymidine], the “side effects of treatment” value with HIV (human, in vivo) is given as “severe side effects of treatment with AZT, in particular a degeneration of bone marrow”. Moreover, the “clinical condition of AIDS patients” value in the data set on HIV is “improvement of the clinical condition of patients”.
Regarding `C[C@@H]1[C@H](O)[C@@H](C)/C=C/C=C/C=C/C=C/C=C/C=C/C=C/[C@H](O[C@@H]2O[C@H](C)[C@@H](O)[C@H](N)[C@@H]2O)C[C@@H]2O[C@](O)(C[C@@H](O)C[C@@H](O)[C@H](O)CC[C@@H](O)C[C@@H](O)CC(=O)O[C@H]1C)C[C@H](O)[C@H]2C(=O)O` [AmB, amphotericin B], the “activity against enveloped DNA and RNA viruses and herpes virus strains” value in data set [3] is “active in vitro”. The “antiviral activity on HRV14 (in words)” value with HRV14 is on record as “no detectable antiviral activity”. The MCC in data set [4] is more than 5 µM. The “inhibition of trypsin (in words)” value on trypsin is “a certain inhibitory activity on trypsin”. Further, on trypsin (10^-5 M), the inhibition at 10 µM is 30%. Besides, the inhibition at 1 µM is 10% at trypsin (10^-6 M, read-out: % of inhibition of trypsin) and approximately 10% at trypsin (setting [6]). On trypsin (10^-7 M), this compound registered an inhibition at 0.1 µM of 5%. Moreover, the “side effects of prolonged treatment” value in data set [5] is given as “frequent side effects such as fever or serious nephrotoxicity”.
`C[C@@H]1[C@H](O)[C@@H](C)/C=C/C=C/C=C/C=C/C=C/C=C/C=C/[C@H](O[C@@H]2O[C@H](C)[C@@H](O)[C@H](NC(=O)C(N)CC(=O)O)[C@@H]2O)C[C@@H]2O[C@](O)(C[C@@H](O)C[C@@H](O)[C@H](O)CC[C@@H](O)C[C@@H](O)CC(=O)O[C@H]1C)C[C@H](O)[C@H]2C(=O)O` (some centres unmarked) [N-aspartyl-AmB]: at trypsin (1 μM, FIG. 1, read-out: % inhibition of trypsin relative to a control without inhibitor), the inhibition at 1 µM is approximately 40%.
As to `CNC[C@H](O)[C@@H](O)[C@H](O)[C@H](O)CO` [N-methylglucamine, reference compound], the “antiviral activity on HRV14 (in words)” value in the data set on HRV14 was “no effect on the virus”.
As for `OC[C@@H]1CC[C@H](n2cnc3c(O)ncnc32)O1` [ddI, 2',3'-dideoxyinosine], the “clinical condition of AIDS patients” value with HIV was “improvement of the clinical condition of patients”.
With “N N'-(2,4'-methylmorpholino)-N"-ethylguanyl!amphotericin B [MCG]”, the cell-protecting properties entry in the data set with HIV-1 [2] was “does not possess, according to this study, cell-protecting properties”. The direct antiviral action entry in the data set with HIV-1 [2] (preincubation with the virus) is listed as “has a direct antiviral action”.

As a reminder, the inhibition is the change of the read-out against control, counted positive when it falls.
